Measurements reported in paper PMC4045308 (Investigational New Drugs, 2013).
Values joined by “and” are separate entries in the source; they are usually repeats but may differ in a detail not shown here. Identical values can stand only once. Like-named read-outs stand apart in the source and are kept apart here. Marks after values point to notes of the source that are not given here.

Tests used:
xenograft MM model = conditions: cited from earlier work
[1] = system: multiple myeloma (MM) cells; conditions: in vitro; cited from earlier work
[2] = in vivo
AAK [3] = conditions: read-out: inhibition constant (Ki); cited from earlier work
PTCL cell lines = conditions: cited from earlier work
AAK [4] = conditions: cell-based assays; cited from earlier work
[5] = phase I study: adverse events (NCI-CTCAE v3.0)
[6] = twice-daily (BID), 7-day schedule in 21-day cycles, solid tumors; cited from earlier work
[7] = system: aggressive B- and T-cell NHL; conditions: 50 mg BID, cited from earlier work
[8] = system: advanced heme-lymphatic malignancies (MM, NHL, CLL); assay: phase I study: antitumor response; format: in vivo, patients
Description: Response was evaluated according to the International Working Group criteria for patients with lymphoma, the International Myeloma Working Group uniform response criteria for patients with MM [28], and the International Workshop on CLL guidelines.

[9] = cited from earlier work
[10] = phase I study: plasma pharmacokinetics; format: in vivo, patients; conditions: for AUC(0-t) / Tmax / half-life: human, plasma, oral; for AUC(0-t): read-out: Geometric mean AUC0–tlast (CV, %); for Tmax: read-out: Median Tmax (range)
Excerpt: PK parameters included: area under the plasma concentration versus time curve, maximum plasma concentration, time to maximum plasma concentration (Tmax), terminal half-life (t1/2), accumulation ratio (Rac), and peak/trough ratio. Secondary endpoints were response rate, duration of response, and evaluation of banked tumor tissue samples for AAK protein expression and gene amplification.
Plasma samples were collected in cycle 1 at various time points on the first day (day 1) and last day (day 7, ECT 7-day schedule; day 14, PIC or ECT 14-day schedules; day 21, PIC 21-day schedule) of treatment. PK parameters were calculated by non-compartmental analysis using WinNonlin software (v5.2.1, Pharsight Corporation, Cary, NC).

mantle cell lymphoma = conditions: cited from earlier work
Aurora B kinase = conditions: cell-based assays; cited from earlier work
[11] = phase I study: DLTs and MTD
Description: Dosing schedules are summarized in Supplementary Fig. S1 (online only). The PIC formulation starting dose was 25 or 35 mg/day. […] For the ECT formulation, the starting dose was 40 mg/day QD for 14 days followed by 14 days’ rest in 28-day cycles.
If 2 of the first 3–6 patients experienced DLTs at a given dose level, dose escalation was delayed while the available safety/clinical data were assessed and a decision made on how to proceed with a modified dose or schedule. […] The use of myeloid growth factors (G-CSF or GM-CSF) or erythropoiesis-stimulating agents was permitted after the DLT evaluation period was completed (cycle 1) and on a case-by-case basis after cycle 2. Treatment continued for up to 12 months, or until disease progression or unacceptable toxicity, with the possibility of treatment extension beyond 12 months if clinical benefit was evident and toxicities were manageable.

[12] = 30 mg, ECT 30 mg BID, 7-day schedule, Day 1, first dose, N 3
[13] = 30 mg, ECT 30 mg BID, 7-day schedule, Day 7, N 3
[14] = 40 mg, ECT 40 mg BID, 7-day schedule, Day 1, first dose, N 9
[15] = 40 mg, ECT 40 mg BID, 7-day schedule, Day 7, N 8
[16] = 50 mg, ECT 50 mg BID, 7-day schedule, Day 7, N 7

COc1cc(Nc2ncc3c(n2)-c2ccc(Cl)cc2C(c2c(F)cccc2OC)=NC3)ccc1C(=O)O [MLN8237, alisertib]
overall survival (xenograft MM model; P = 0.0044): significantly increased | tumor burden (xenograft MM model; P = 0.007): significantly reduced | effect on MM cells [1]: mitotic spindle abnormalities, mitotic accumulation, and apoptosis | on-study deaths considered treatment-related [2]: none | Ki (AAK [3]): 0.43 nM | effect on PTCL cell lines (PTCL cell lines): induces endo-reduplication and apoptosis | IC50 (AAK [4]): […] | patients reporting drug-related AEs ([5]; N = 58): 90% | grade 3 or higher febrile neutropenia, frequency ([5]; all cohorts): 9% | grade ≥3 drug-related anemia, patients ([5]; all cohorts, N = 58): 19% | grade ≥3 drug-related leukopenia, patients ([5]; all cohorts, N = 58): 19% | grade ≥3 drug-related neutropenia, patients ([5]; all cohorts, N = 58): 45% | grade ≥3 drug-related thrombocytopenia, patients ([5]; all cohorts, N = 58): 28% | Alopecia, drug-related AE, All grades ([5]; all doses and schedules): 15 (26) n (%) | Anemia, drug-related AE, All grades ([5]; all doses and schedules): 19 (33) n (%) | Anemia, drug-related AE, Grade ≥3 ([5]; all doses and schedules): 11 (19) n (%) | Decreased WBC count, drug-related AE, All grades ([5]; all doses and schedules): 5 (9) n (%) | Decreased WBC count, drug-related AE, Grade ≥3 ([5]; all doses and schedules): 3 (5) n (%) | Diarrhea, drug-related AE, All grades ([5]; all doses and schedules): 20 (34) n (%) | Diarrhea, drug-related AE, Grade ≥3 ([5]; all doses and schedules): 1 (2) n (%) | Fatigue, drug-related AE, All grades ([5]; all doses and schedules): 15 (26) n (%) | Fatigue, drug-related AE, Grade ≥3 ([5]; all doses and schedules): 2 (3) n (%) | Febrile neutropenia, drug-related AE, All grades ([5]; all doses and schedules): 5 (9) n (%) | Febrile neutropenia, drug-related AE, Grade ≥3 ([5]; all doses and schedules): 5 (9) n (%) | Leukopenia, drug-related AE, All grades ([5]; all doses and schedules): 13 (22) n (%) | Leukopenia, drug-related AE, Grade ≥3 ([5]; all doses and schedules): 11 (19) n (%) | Lymphopenia, drug-related AE, All grades ([5]; all doses and schedules): 8 (14) n (%) | Lymphopenia, drug-related AE, Grade ≥3 ([5]; all doses and schedules): 4 (7) n (%) | Nausea, drug-related AE, All grades ([5]; all doses and schedules): 12 (21) n (%) | Neutropenia, drug-related AE, All grades ([5]; all doses and schedules): 33 (57) n (%) | Neutropenia, drug-related AE, Grade ≥3 ([5]; all doses and schedules): 26 (45) n (%) | Somnolence, drug-related AE, All grades ([5]; all doses and schedules): 6 (10) n (%) | Stomatitis, drug-related AE, All grades ([5]; all doses and schedules): 7 (12) n (%) | Stomatitis, drug-related AE, Grade ≥3 ([5]; all doses and schedules): 1 (2) n (%) | Thrombocytopenia, drug-related AE, All grades ([5]; all doses and schedules): 24 (41) n (%) | Thrombocytopenia, drug-related AE, Grade ≥3 ([5]; all doses and schedules): 16 (28) n (%) | Vomiting, drug-related AE, All grades ([5]; all doses and schedules): 8 (14) n (%) | On-study deaths ([5]; during treatment or within 30 days of last dose): 6 (10 %) n (%) and 6 (10) n (%) | discontinued treatment due to drug-related bullous dermatitis ([5]; in vivo): 1 n | discontinued treatment due to drug-related confusion ([5]; in vivo): 1 n | discontinued treatment due to drug-related thrombocytopenia ([5]; in vivo): 4 n | tolerability ([5]; patients with advanced heme-lymphatic malignancies): generally well tolerated | Any AE resulting in discontinuation ([5]; safety population): 9 (16 %) n (%) and 9 (16) n (%) | Any drug-related AE ([5]; safety population): 52 (90) n (%) | Any drug-related grade ≥3 AE ([5]; safety population): 35 (60 %) n (%) and 35 (60) n (%) | Any treatment-emergent AE ([5]; safety population): 58 (100) n (%) | Any treatment-emergent grade ≥3 AE ([5]; safety population): 46 (79) n (%) | Any treatment-emergent serious AE ([5]; safety population): 28 (48) n (%) | maximum tolerated dose (MTD) [6]: 50 mg | CR ([7]; 48 treated patients): 10% | PR ([7]; 48 treated patients): 17% | overall response rate ([7]; 48 treated patients): 27% | patients achieving SD ([7]; 48 treated patients): 33% | patients with T-cell lymphoma who had a response [7]: 4/8 | duration of stable disease ([8]; 13 patients with SD): […] | patients achieving partial response (PR) ([8]; 47 response-evaluable patients): 13% | patients with partial response (PR) ([8]; 47 response-evaluable patients): 6 patients | patients discontinued due to progressive disease ([8]; N = 58): 64% | aqueous solubility [9]: low | Geometric mean CLss/F (CV, %) ([10]; ECT 30 mg BID, 7-day schedule, Day 7, N 3): 3.7 (0.7) L/h | Geometric mean CLss/F (CV, %) ([10]; ECT 40 mg BID, 7-day schedule, Day 7, n=7): 4.4 (1.9) ^† L/h | Geometric mean CLss/F (CV, %) ([10]; ECT 50 mg BID, 7-day schedule, Day 7, N 7): 6.7 (5.6) L/h | Mean CLss/F ([10]; all formulations, CV 69 %, n = 42): 4.8 L/h | AUC(0-t) [10, 12]: 5.52 µM·h | Tmax [10, 12]: 2 h | AUC(0-t) [10, 13]: 16 µM·h | Tmax [10, 13]: 2 h | half-life ([10]; 30 mg, ECT 30 mg BID, 7-day schedule, Day 7, n=1, read-out: Mean t1/2 (sd) (converted)): 13.3 h | AUC(0-t) [10, 14]: 7.09 µM·h | Tmax [10, 14]: 2.2 h | AUC(0-t) [10, 15]: 18.6 µM·h | Tmax [10, 15]: 2 h | half-life ([10]; 40 mg, ECT 40 mg BID, 7-day schedule, Day 7, n=4, read-out: Mean t1/2 (sd) (converted)): 19.9 h | Tmax ([10]; 50 mg, ECT 50 mg BID, 7-day schedule, Day 1, first dose, N 10): 2 h | AUC(0-t) ([10]; 50 mg, ECT 50 mg BID, 7-day schedule, Day 1, first dose, n=9): 9.73 µM·h | AUC(0-t) [10, 16]: 17.9 µM·h | Tmax [10, 16]: 2 h | half-life ([10]; 50 mg, ECT 50 mg BID, 7-day schedule, Day 7, n=5, read-out: Mean t1/2 (sd) (converted)): 18.4 h | half-life ([10]; multiple-dose administration, PIC and ECT, read-out: overall mean steady-state t1/2 (terminal half-life) (converted)): ~19 h | half-life ([10]; multiple-dose administration, PIC and ECT, read-out: steady-state t1/2, range): 10 to 43 h | tumor growth (mantle cell lymphoma): inhibit tumor growth | IC50 (Aurora B kinase): […] | MTD ([11]; ECT 7-day schedule, BID): 50 mg | MTD ([11]; PIC 14-day schedule, QD): 45 mg | recommended phase II dose ([11]; human, in vivo, 7 days): 50 mg
